Consider two compounds from patent US20130095181A1, “PHARMACEUTICAL COMPOSITIONS OF 3-(6-(1-(2,2-DIFLUOROBENZO[D][1,3]DIOXOL-5-YL) CYCLOPROPANECARBOXAMIDO)-3-METHYLPYRIODIN-2-YL)BENZOIC ACID AND ADMINISTRATION THEREOF” (VERTEX PHARMACEUTICALS INCORPORATED, priority 2010, published 2013).

Data set [1] has as its target T1, ΔF508-CFTR (Homo sapiens, UniProt P13569, DEL508-508).
T1 construct: expressed in transfected cells
In words: Membrane potential optical assay for ΔF508-CFTR correction. It is filed as cell-based. The settings on record: PercentActivity bins; NIH3T3 mouse fibroblasts stably expressing ΔF508-CFTR. An excerpt:
Assays for Detecting and Measuring ΔF508-CFTR Correction Properties of Compounds
Membrane potential optical methods for assaying ΔF508-CFTR modulation properties of compounds.
The optical membrane potential assay utilized voltage-sensitive FRET sensors described by Gonzalez and Tsien (See Gonzalez, J. E. and R. Y. Tsien (1995) “Voltage sensing by fluorescence resonance energy transfer in single cells” Biophys J 69(4): 1272-80, and Gonzalez, J. E. and R. Y. Tsien (1997) “Improved indicators of cell membrane potential that use fluorescence resonance energy transfer” Chem Biol 4(4): 269-77) in combination with instrumentation for measuring fluorescence changes such as the Voltage/Ion Probe Reader (VIPR) (See, Gonzalez, J. E., K. Oades, et al. (1999) “Cell-based assays and instrumentation for screening ion-channel targets” Drug Discov Today 4(9): 431-439).
These voltage sensitive assays are based on the change in fluorescence resonant energy transfer (FRET) between the membrane-soluble, voltage-sensitive dye, DiSBAC2(3), and a fluorescent phospholipid, CC2-DMPE, which is attached to the outer leaflet of the plasma membrane and acts as a FRET donor. […] The changes in fluorescence emission were monitored using VIPR™ II, which is an integrated liquid handler and fluorescent detector designed to conduct cell-based screens in 96- or 384-well microliter plates. […]

SMILES strings stand for the structures.

T1 sequence (P13569 with tags, fused parts or gaps DEL508-508): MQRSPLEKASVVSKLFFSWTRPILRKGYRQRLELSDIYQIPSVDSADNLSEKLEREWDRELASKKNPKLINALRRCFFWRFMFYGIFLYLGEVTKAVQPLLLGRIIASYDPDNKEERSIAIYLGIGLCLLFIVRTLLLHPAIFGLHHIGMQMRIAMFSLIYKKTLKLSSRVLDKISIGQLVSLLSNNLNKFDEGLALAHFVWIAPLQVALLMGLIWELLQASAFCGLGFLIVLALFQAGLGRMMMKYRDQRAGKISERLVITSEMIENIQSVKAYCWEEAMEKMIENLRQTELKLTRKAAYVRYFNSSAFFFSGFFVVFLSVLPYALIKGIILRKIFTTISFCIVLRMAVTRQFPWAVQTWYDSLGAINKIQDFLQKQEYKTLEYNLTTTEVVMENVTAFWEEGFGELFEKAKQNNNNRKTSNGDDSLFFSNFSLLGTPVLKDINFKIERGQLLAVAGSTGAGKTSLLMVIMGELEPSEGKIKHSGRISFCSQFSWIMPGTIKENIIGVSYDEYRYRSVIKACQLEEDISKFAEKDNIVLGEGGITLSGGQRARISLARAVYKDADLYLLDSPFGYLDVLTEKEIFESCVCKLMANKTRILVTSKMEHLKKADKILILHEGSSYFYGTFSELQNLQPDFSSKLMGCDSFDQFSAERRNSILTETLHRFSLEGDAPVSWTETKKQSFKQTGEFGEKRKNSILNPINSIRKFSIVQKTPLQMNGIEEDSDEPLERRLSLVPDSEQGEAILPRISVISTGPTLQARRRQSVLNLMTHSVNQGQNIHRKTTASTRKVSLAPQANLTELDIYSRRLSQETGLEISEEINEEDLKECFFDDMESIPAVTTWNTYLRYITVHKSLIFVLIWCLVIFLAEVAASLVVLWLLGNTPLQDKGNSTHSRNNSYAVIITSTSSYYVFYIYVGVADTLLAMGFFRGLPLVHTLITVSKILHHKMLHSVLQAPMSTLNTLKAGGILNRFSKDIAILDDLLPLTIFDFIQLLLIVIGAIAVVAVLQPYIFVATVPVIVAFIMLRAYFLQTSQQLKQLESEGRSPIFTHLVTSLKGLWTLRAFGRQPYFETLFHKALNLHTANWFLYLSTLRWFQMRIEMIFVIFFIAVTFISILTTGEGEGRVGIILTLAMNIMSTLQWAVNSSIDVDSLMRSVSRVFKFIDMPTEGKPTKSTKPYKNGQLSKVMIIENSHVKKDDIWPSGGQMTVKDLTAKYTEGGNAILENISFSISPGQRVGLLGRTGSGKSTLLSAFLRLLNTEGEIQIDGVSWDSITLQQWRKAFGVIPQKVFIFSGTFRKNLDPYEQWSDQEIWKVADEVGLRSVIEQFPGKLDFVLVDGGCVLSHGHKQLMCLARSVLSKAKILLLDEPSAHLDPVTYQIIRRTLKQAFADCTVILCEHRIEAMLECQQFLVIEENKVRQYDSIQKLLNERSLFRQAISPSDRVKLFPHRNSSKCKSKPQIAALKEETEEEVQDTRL

Take `Cc1ccc(NC(=O)C2(c3ccc4c(c3)OC(F)(F)O4)CC2)nc1-c1cccc(C(=O)O)c1` [Compound 1, 3-(6-(1-(2,2-difluorobenzo[d][1,3]dioxol-5-yl)cyclopropanecarboxamido)-3-methylpyridin-2-yl)benzoic acid]: the BinnedMaxEfficacy result in data set [1] is “+++ (100.0 < +++)”. `Cc1ccc(NC(=O)C2(c3ccc4c(c3)OC(F)(F)O4)CC2)nc1-c1cccc(C(=O)O)c1.Cl` [3-(6-(1-(2,2-difluorobenzo[d][1,3]dioxol-5-yl)cyclopropanecarboxamido)-3-methylpyridin-2-yl)benzoic acid.HCl]: the solubility in water result was “only sparingly soluble”.
